Structures can show the parent of a compound that is named as a salt.

The series can be described thus: In vivo pharmacokinetic investigation, subcutaneous injection, plasma by LC-MS. The arrangement: species or system rat. As to conditions: in rats, inferred from PK and duration of efficacy. The procedure: The obtained pharmaceutical composition was subcutaneously injected into male SD rats. Blood was collected at predetermined time points. The content of the drug in plasma was determined by LC-MS method, and the pharmacokinetics in vivo was investigated.
Experimental animals: male SD rats with a weight of 200-300 g, source: […] OF MATERIA MEDICA, CHINESE ACADEMY OF SCIENCES;
Experimental grouping: Rats were randomly divided into groups according to the following table, with 6 rats in each group;
Experimental procedure: Rats were subcutaneously injected, and at a predetermined time point, 0.5 ml of blood was collected from the orbit of the rat and placed in a centrifuge tube with heparin sodium anticoagulation. The tube was centrifuged at 3000 rpm for 10 min to separate the plasma, and the plasma concentration was detected by LC-MS method.
The pharmacokinetic (PK) parameters of the compositions were calculated, and the results were statistically analyzed by t-test.

Turning to `CCCN1CCCC[C@H]1C(=O)Nc1c(C)cccc1C` [ropivacaine hydrochloride], the onset concentration result is on record as “about 20 ng/ml”.

The record behind these values is patent US20230080811A1 (priority 2020, published 2023).
